From EPA's ToxRefDB 2

Experiments:
rabbit = details: Prenatal developmental toxicity study, new zealand white, Oral, Capsule, dose end: 18 GD
dog [1] = details: Chronic toxicity, beagle, Oral, Feed, dose end: 12 month, group: systemic
rat [2] = details: Combined chronic toxicity/carcinogenicity; sprague dawley; Oral; Feed; dose end: 115 week; group: systemic; systemic / in life observation / body weight / body weight
mouse [3] = details: Combined chronic toxicity/carcinogenicity, cd1, Oral, Feed, dose end: 89 week, group: systemic
rat [4] = details: Multigenerational reproductive toxicity study, sprague dawley, Oral, Feed, dose end: 2 generation
mouse [5] = details: Carcinogenicity, cd1, Oral, Feed, dose end: 18 month, group: systemic
rat [6] = details: Combined chronic toxicity/carcinogenicity, sprague dawley, Oral, Feed, dose end: 24 month, group: systemic
rat [7] = details: Subchronic oral toxicity in rodents, sprague dawley, Feed, dose end: 90 day, group: systemic
rat [8] = details: Multigenerational reproductive toxicity study, sprague dawley, Oral, Feed, dose end: 2 generation; remark: listed apart in the source
dog [9] = details: Chronic toxicity, beagle, Oral, Capsule, dose end: 52 week, group: systemic
[10] = group: developmental, developmental / developmental malformation / bone / irregular ossification
[11] = group: maternal, reproductive / reproductive performance / aborted / aborted + systemic / in life observation / clinical signs / ataxia
[12] = group: maternal, reproductive / reproductive performance / aborted / aborted + systemic / in life observation / clinical signs / ataxia + systemic / in life …
[13] = systemic / pathology microscopic / lung / [other] + systemic / in life observation / clinical signs / inappetence + systemic / in life …
[14] = systemic / in life observation / mortality / mortality
[15] = group: offspring, systemic / in life observation / body weight / offspring (pup) weight
[16] = group: offspring, systemic / organ weight / liver / relative to body weight
[17] = group: parental, systemic / organ weight / kidney / relative to body weight
[18] = systemic / hematology / anemia / anemia - nos + systemic / hematology / erythrocyte (rbc) count differential / erythrocyte (rbc) + systemic…
[19] = systemic / in life observation / clinical signs / fur (altered appearance) + systemic / pathology gross / penis / prolapse
[20] = systemic / hematology / erythrocyte (rbc) count differential / erythrocyte (rbc) + systemic / hematology / hematocrit (hct) / hematocrit (…
[21] = systemic / in life observation / clinical signs / fur (altered appearance) + systemic / in life observation / clinical signs / urine, …
[22] = group: parental, systemic / pathology gross / spleen / discolored + systemic / pathology microscopic / spleen / congestion + systemic / pathology microscopic…
[23] = group: reproductive, reproductive / offspring survival early / litter size / litter size
[24] = systemic / clinical chemistry / cholesterol / cholesterol + systemic / clinical chemistry / bilirubin / total bilirubin + systemic / …
[25] = systemic / hematology / platelet / platelet + systemic / organ weight / spleen / absolute + systemic / organ weight / spleen / relative to …

In the case of `COc1c(Cl)ccc(Cl)c1C(=O)O` [Dicamba], the LEL (rabbit; [10]) is reported as 300 mg/kg/day, the LOAEL (rabbit; [10]) is reported as 300 mg/kg/day and the NEL (rabbit; [10]) is reported as 150 mg/kg/day. For the same compound, the NOAEL (rabbit; [10]) was 150 mg/kg/day, the LEL (rabbit; [11]) was 150 mg/kg/day and the LOAEL (rabbit; [11]) was 150 mg/kg/day. The NEL (rabbit; [12]) was 30 mg/kg/day, the NOAEL (rabbit; [12]) was 30 mg/kg/day and the NEL (dog [1]; systemic / pathology microscopic / lung / [other]) was 2 mg/kg/day. For the same compound, the LEL (dog [1]; systemic / pathology microscopic / lung / [other] + systemic / in life observation / clinical signs / inappetence) was 11 mg/kg/day, the LOAEL (dog [1]; [13]) was > 52 mg/kg/day and the NOAEL (dog [1]; [13]) was ≥ 52 mg/kg/day. The LEL (rat [2]) was 125 mg/kg/day, the LOAEL (rat [2]) was > 125 mg/kg/day and the NEL (rat [2]) was 12.5 mg/kg/day. For the same compound, the NOAEL (rat [2]) was ≥ 125 mg/kg/day, the LOAEL (mouse [3]; [14]) was 358 mg/kg/day and the NOAEL (mouse [3]; [14]) was 108 mg/kg/day. The LEL (mouse [3]; systemic / organ weight / kidney / nos) was 121 mg/kg/day, the NEL (mouse [3]; systemic / organ weight / kidney / nos + systemic / in life observation / body weight / body weight gain) was 18.8 mg/kg/day and the LOAEL (rat [4]; [15]) was 122 mg/kg/day. The NOAEL (rat [4]; group: offspring, systemic / in life observation / body weight / offspring (pup) weight + systemic / organ weight / liver / relative to body weight) was 40 mg/kg/day, the LEL (rat [4]; [16]) was 40 mg/kg/day and the NEL (rat [4]; [16]) was < 40 mg/kg/day. The LEL (rat [4]; [17]) was 40 mg/kg/day, the NEL (rat [4]; [17]) was < 40 mg/kg/day and the LOAEL (rat [4]; group: parental, systemic / organ weight / liver / relative to body weight) was 419 mg/kg/day. It also gave an NOAEL (rat [4]; group: parental, systemic / organ weight / liver / relative to body weight + systemic / in life observation / body weight / body weight + systemic / organ …) of 122 mg/kg/day.
`c1ccc(Nc2ccccc2)cc1` [Diphenylamine] gave an LOAEL (mouse [5]; [18]) of 368 mg/kg/day, an NOAEL (mouse [5]; [18]) of 73.2 mg/kg/day and an LEL (mouse [5]; [19]) of 73.2 mg/kg/day. The NEL (mouse [5]; [19]) was < 73.2 mg/kg/day, the LOAEL (rat [6]; [20]) was 138 mg/kg/day and the NEL (rat [6]; [20]) was 7.5 mg/kg/day. The NOAEL (rat [6]; [20]) was 24.9 mg/kg/day, the LEL (rat [6]; systemic / hematology / erythrocyte (rbc) count differential / erythrocyte (rbc) + systemic / pathology gross / spleen / discolored + …) was 24.9 mg/kg/day and the LOAEL (rat [7]; [21]) was 547 mg/kg/day. The NEL (rat [7]; [21]) was 9.6 mg/kg/day, the NOAEL (rat [7]; [21]) was 95.8 mg/kg/day and the LEL (rat [7]; systemic / pathology microscopic / spleen / hematopoietic cell proliferation erythrocytic) was 95.8 mg/kg/day. It also gave an LEL (rat [8]; [15]) of 115 mg/kg/day, an LOAEL (rat [8]; [15]) of 115 mg/kg/day and an NEL (rat [8]; [15]) of 40 mg/kg/day. The NOAEL (rat [8]; [15]) was 40 mg/kg/day, the LEL (rat [8]; [22]) was 40 mg/kg/day and the LOAEL (rat [8]; [22]) was 40 mg/kg/day. The NEL (rat [8]; [22]) was < 40 mg/kg/day, the NOAEL (rat [8]; [22]) was < 40 mg/kg/day and the LEL (rat [8]; [23]) was 399 mg/kg/day. For the same compound, the LOAEL (rat [8]; [23]) was 399 mg/kg/day, the NEL (rat [8]; [23]) was 115 mg/kg/day and the NOAEL (rat [8]; [23]) was 115 mg/kg/day. The LOAEL (dog [9]; [24]) was 50 mg/kg/day, the NOAEL (dog [9]; [24]) was 10 mg/kg/day and the LEL (dog [9]; [25]) was 10 mg/kg/day. For the same compound, the NEL (dog [9]; [25]) was < 10 mg/kg/day.
